US20240168030A1, “DIRECT FLUORESCENT GLYCAN LABELING” (BIO-TECHNE CORPORATION, priority 2019, published 2024)

Experiments:
Format in all cases: biochemical
FUT2 = biological target: T1, FUT2 (Homo sapiens, UniProt Q10981); assay: Fluorescent labeling with fluorophore-conjugated fucose by FUT2; parameters: key to Tolerance of the fluorophore by FUT2: +++: indicated by number of + signs; ++: indicated by number of + signs; indicated by number of + signs; details: for Tolerance of the fluorophore by FUT2: fluorophore-conjugated fucose donor, acceptor terminal Gal of lactosamine, fluorescent intensity of labeled fetuin or asialofetuin in FIG. 9
T1 construct: purchased Bio-Techne (Minneapolis, MN)
T1 sequence (Q10981 1-343): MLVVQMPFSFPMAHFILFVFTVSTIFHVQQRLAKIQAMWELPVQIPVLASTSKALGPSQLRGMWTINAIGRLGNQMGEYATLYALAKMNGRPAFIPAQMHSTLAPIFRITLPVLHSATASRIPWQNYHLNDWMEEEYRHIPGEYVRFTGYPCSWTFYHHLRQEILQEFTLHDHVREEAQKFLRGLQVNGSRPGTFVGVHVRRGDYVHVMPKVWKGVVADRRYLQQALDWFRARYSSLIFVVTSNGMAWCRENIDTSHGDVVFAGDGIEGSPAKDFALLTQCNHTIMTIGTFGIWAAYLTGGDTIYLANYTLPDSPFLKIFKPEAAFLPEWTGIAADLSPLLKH
Procedure: (§1) FIG. 9A-FIG. 9B show exemplary results of probing substrate glycans of various fucosyltransferases on fetuin and asialofetuin. FIG. 9A. Probing substrate glycans of fucosyltransferases with guanosine 5′-diphosphate activated Cy5 conjugated fucose (GDP-Cy5-Fuc). […] FUT9 labeled itself (indicated by an arrow in the gel). FIG. 9B. Tolerance of Alexa-Fluor®555 (555), Alexa-Fluor®488 (488), and Cy5 by the indicated fucosyltransferases. All reactions were incubated at 37° C. for 30 minutes and then separated on SDS-PAGE and imaged with silver staining (upper panels) and fluorescent imager (lower panels). M, molecular marker.
(§2) For a typical labeling reaction, 1 μg to 5 μg target protein was mixed with 0.2 nmol GDP-f-Fuc and 0.2 μg of a fucosyltransferase in 30 μL buffer of 25 mM Tris pH 7.5, 10 mM MnCl2. The mixture was incubated at 37° C. for 30 minutes. The reaction was then separated by sodium dodecyl sulfate—polyacrylamide gel electrophoresis (SDS-PAGE) and the gel was directly imaged using a fluorescent imager FluorChem M ProteinSimple, Bio-Techne, Minneapolis, MN), followed by imaging with traditional protein imaging methods such as silver staining or trichloroethanol (TCE) staining.
(§3) The four enzymes tolerated the three fluorophores to different levels.

FUT6 = biological target: T2, FUT6 (Homo sapiens, UniProt P51993); assay: Fluorescent labeling with fluorophore-conjugated fucose by FUT6; parameters: key: +++: indicated by number of + signs; ++: indicated by number of + signs; indicated by number of + signs; details: fluorophore-conjugated fucose donor; acceptor GlcNAc of lactosamine, sialylation on terminal Gal is flexible; FIG. 9
T2 sequence (P51993 1-359): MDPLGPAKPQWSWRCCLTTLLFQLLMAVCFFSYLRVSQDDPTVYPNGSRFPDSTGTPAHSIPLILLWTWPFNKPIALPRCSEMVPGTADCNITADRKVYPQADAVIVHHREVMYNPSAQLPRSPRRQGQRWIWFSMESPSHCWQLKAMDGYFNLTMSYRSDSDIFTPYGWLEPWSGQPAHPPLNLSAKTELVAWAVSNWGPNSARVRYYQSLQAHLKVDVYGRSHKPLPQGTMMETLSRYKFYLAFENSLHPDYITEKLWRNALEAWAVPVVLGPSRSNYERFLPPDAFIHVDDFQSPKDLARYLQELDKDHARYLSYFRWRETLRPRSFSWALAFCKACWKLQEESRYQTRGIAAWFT
Procedure: as §1, §2, §3

FUT7 = biological target: T3, FUT7 (Homo sapiens, UniProt Q11130); assay: Fluorescent labeling with fluorophore-conjugated fucose by FUT7; parameters: key to Tolerance of the fluorophore by FUT7: +++: indicated by number of + signs; ++: indicated by number of + signs; indicated by number of + signs; details: for Tolerance of the fluorophore by FUT7: fluorophore-conjugated fucose donor, acceptor GlcNAc of sialylactosamine, FIG. 9
T3 sequence (Q11130 1-342): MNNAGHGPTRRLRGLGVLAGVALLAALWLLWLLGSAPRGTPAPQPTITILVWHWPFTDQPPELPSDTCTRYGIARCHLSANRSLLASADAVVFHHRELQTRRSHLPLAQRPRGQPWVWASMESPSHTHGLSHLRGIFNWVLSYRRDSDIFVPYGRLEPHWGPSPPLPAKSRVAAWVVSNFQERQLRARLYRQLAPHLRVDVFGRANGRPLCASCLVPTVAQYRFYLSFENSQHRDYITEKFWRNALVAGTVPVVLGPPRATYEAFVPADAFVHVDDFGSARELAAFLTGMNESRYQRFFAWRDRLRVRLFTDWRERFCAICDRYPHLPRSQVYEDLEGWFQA
Procedure: as §1, §2, §3

[1] = among Cy5-, AlexaFluor® 488-, and AlexaFluor® 555-conjugated fucoses, FIG. 9B

Substance | Fluorophore preference of FUT2 (FUT2; [1]) | Tolerance of the fluorophore by FUT2 (FUT2) | Tolerance of the fluorophore by FUT6 (FUT6) | Tolerance of the fluorophore by FUT7 (FUT7) | Fluorophore preference of FUT7 (FUT7; [1])
guanosine 5′-diphosphate activated Alexa-Fluor®555 conjugated fucose [GDP-AF555-Fuc] | preferred | +++ | ++ | + | 
guanosine 5′-diphosphate activated Alexa-Fluor®488 conjugated fucose [GDP-AF488-Fuc] |  | + | ++ | ++ | preferred
